Test results from patent publication US20260306460A1, “COMPOSITION FOR REMOVING AND INHIBITING SENESCENT CELLS, AND USES THEREOF” (LIFECEUTIX CO., LTD., priority 2023, published 2026).

Legend:
senescent human cells = assay: Viability of doxorubicin-induced senescent human cells (CellTiter-Glo), Example 11; format: cell-based
Procedure: Cells in which senescence was induced by treatment with doxorubicin were treated with the test compound at designated concentrations and measured using the CellTiter-Glo Luminescent Cell Viability Assay (Promega).
After 3 days, cell viability was measured using CellTiter-Glo Luminescent Cell Viability Assay (Promega) or light microscopy.

naturally aged mice = assay: p16, MMP3, IL6 mRNA in liver of naturally aged mice (qRT-PCR), Example 15; format: in vivo, mouse; settings: untreated aged = 100%, 5 days; for p16 mRNA: LX-405 10 mg/kg ip, LX-801 100 mg/kg ip, LX-1102 100 mg/kg po, LX-1801 50 mg/kg ip, LX-2101 10 mg/kg ip, LX-3403 100 μg ip; for IL6 mRNA / MMP3 mRNA: doses as p16 mRNA
Procedure: In the same manner as in Example 7-1 of WO2023-085787 A1, naturally aged mice were administered LX-405 (5% DMSO in PBS solution, 10 mg/kg, intraperitoneal administration), LX-801 (PBS, 100 mg/kg, intraperitoneal administration), LX-1102 (0.5% CMC-Na solution, 100 mg/kg, oral administration), LX-1801 (PBS, 50 mg/kg, intraperitoneal administration), LX-2101 (0.5% CMC-Na solution, 10 mg/kg, intraperitoneal administration), and LX-3403 (mouse anti-PD-1 antibody (BioXcell), 100 μg, intraperitoneal administration) for 5 days under the following conditions. The control group was administered only the solution in the same volume. After drug administration was completed, the method described in each Example below was performed. The mouse was sacrificed in the same manner as Example 7-2 and 7-6 of WO2023-085787 A1. Total RNA was extracted from liver tissue, and qRT-PCR was performed and analyzed using synthesized cDNA. […] The mRNA amounts of p16, MMP3, and IL6 after natural aging were induced were calculated as 100% and compared them with the mRNA amounts of p16, MMP3, and IL6 after treatment with the test compound. Furthermore, an open field test was performed to analyze aging-related frailty in mice using the same method as Example 7-7 of WO2023-085787 A1. […] The amount of activity evaluated after inducing aging was calculated as 100% and compared it with the amount of activity evaluated after treatment with the test compound.

[1] = test system: naturally aged C57BL6J mice; assay: Lipofuscin staining in muscle of naturally aged mice, Example 21-4; format: in vivo, mouse; settings: untreated aged = 100, LX-5701 360 mg/kg po, LX-2101 20 mg/kg ip, LX-2102 10 mg/kg ip, daily 21 days
Procedure: 22-month-old female C57BL6J mice (KRIBB Laboratory Animal Resource Center) were acclimated to the experimental environment for one week, after which the aged mice were randomly assigned to experimental and control groups. Eight-week-old, non-aged mice served as controls. LX-403 was mixed in a 10% ethanol solution of PEG400 and administered orally at a concentration of 25 mg/kg daily for 21 days, or administered to the skin, joints, or eyes at a concentration of 1 μM. LX-1801 was mixed in distilled water with 4% DMSO, 30% PEG300, and 5% Tween80 and administered to the skin, joints, or eyes at a concentration of 0.4 μM daily for 21 days. LX-2001 was mixed in PBS and administered to the skin, joints, or eyes at a concentration of […] daily for 21 days. LX-2002 was mixed in distilled water with 4% DMSO, 30% PEG300, and 5% Tween80 and administered to the skin, joints, or eyes at a concentration of 2 μM daily for 21 days. […] LX-2005 was mixed in distilled water with 4% DMSO, 30% PEG300, and 5% Tween80 and administered to the skin, joints, or eyes at a concentration of 90 μM daily for 21 days. LX-2007 was mixed in distilled water with 4% DMSO, 30% PEG300, and 5% Tween80 and administered to the skin, joints, or eyes at a concentration of 90 μM daily for 21 days. […] LX-3002 was mixed in distilled water with 4% DMSO, 30% PEG300, and 5% Tween80 and administered orally at a concentration of 10 mg/kg daily for 21 days. […] LX-5411 was mixed in 5% PBS and administered orally at a concentration of 10 mg/kg daily for 21 days or administered to the skin, joints, or eyes at a concentration of 3 μM. LX-5701 was mixed in PBS and administered orally at a concentration of 360 mg/kg daily for 21 days. LX-6807 was mixed in saline and administered intraperitoneally at a concentration of 1 mg/kg daily for 21 days. LX-2101 or LX-2102 was mixed in PBS solution with 5% DMSO and administered intraperitoneally at a concentration of 20 mg/kg or 10 mg/kg, respectively, daily for 21 days. […]
Mice were sacrificed and evaluated using the same method as in Example 7-4 of WO2023-085787 A1. […]

[2] = test system: naturally aged C57BL6J mice; assay: Kidney damage markers (urea, creatinine, Agtr1a mRNA) in naturally aged mice, Example 21-9, Table 24; format: in vivo, mouse; settings: untreated aged = 100%; for Agtr1a mRNA (%): qRT-PCR; for Creatinine (%) / Urea (%): serum
Procedure: 22-month-old female C57BL6J mice (KRIBB Laboratory Animal Resource Center) were acclimated to the experimental environment for one week, after which the aged mice were randomly assigned to experimental and control groups. Eight-week-old, non-aged mice served as controls. LX-403 was mixed in a 10% ethanol solution of PEG400 and administered orally at a concentration of 25 mg/kg daily for 21 days, or administered to the skin, joints, or eyes at a concentration of 1 μM. LX-1801 was mixed in distilled water with 4% DMSO, 30% PEG300, and 5% Tween80 and administered to the skin, joints, or eyes at a concentration of 0.4 μM daily for 21 days. LX-2001 was mixed in PBS and administered to the skin, joints, or eyes at a concentration of […] daily for 21 days. LX-2002 was mixed in distilled water with 4% DMSO, 30% PEG300, and 5% Tween80 and administered to the skin, joints, or eyes at a concentration of 2 μM daily for 21 days. […] LX-2005 was mixed in distilled water with 4% DMSO, 30% PEG300, and 5% Tween80 and administered to the skin, joints, or eyes at a concentration of 90 μM daily for 21 days. LX-2007 was mixed in distilled water with 4% DMSO, 30% PEG300, and 5% Tween80 and administered to the skin, joints, or eyes at a concentration of 90 μM daily for 21 days. […] LX-3002 was mixed in distilled water with 4% DMSO, 30% PEG300, and 5% Tween80 and administered orally at a concentration of 10 mg/kg daily for 21 days. […] LX-5411 was mixed in 5% PBS and administered orally at a concentration of 10 mg/kg daily for 21 days or administered to the skin, joints, or eyes at a concentration of 3 μM. LX-5701 was mixed in PBS and administered orally at a concentration of 360 mg/kg daily for 21 days. LX-6807 was mixed in saline and administered intraperitoneally at a concentration of 1 mg/kg daily for 21 days. LX-2101 or LX-2102 was mixed in PBS solution with 5% DMSO and administered intraperitoneally at a concentration of 20 mg/kg or 10 mg/kg, respectively, daily for 21 days. The control group received only the solution in the same volume. After the end of drug administration, the methods described in each example below were performed.
The levels of urea and creatinine, markers of kidney damage, in serum collected from mice were measured spectrophotometrically using kits (BioAssay Systems and Sigma). Additionally, the amount of Agtr1a mRNA, a marker of kidney damage, was measured using qRT-PCR as described in Example 7-2 of WO2023-085787 A1. […] The amount of each factor after aging was calculated as 100% and compared with the amount of each factor after test compound treatment.

C57BL6-ApoE−/− mice = assay: Atherosclerosis in ApoE-/- mice (p16 mRNA, vascular plaque), Example 27, Table 51; format: in vivo, mouse; settings: high-fat diet ApoE−/− mice; for p16 mRNA: aortic arch of thoracic aorta, untreated 100%; for Plaque number: thoracic aorta, Oil Red O, untreated 21.4 (±5.7)
Procedure: Fifteen-week-old male C57BL6-ApoE^−/−-mice (SLC) with atherosclerosis induced by a high-fat diet in the same manner as in Example 9-1 of WO2023-085787 A1 were acclimated to the experimental environment for one week and then randomly assigned to experimental and control groups. […] The control group was administered only the solution in the same volume. After the drug administration was terminated, the mice were sacrificed, and RNA was extracted from the aortic arch of the thoracic aorta using the same method as Example 7-2 of WO2023-085787 A1, and qRT-PCR was performed using the synthesized cDNA. In addition, the remaining part of the thoracic aorta was dissected, fixed flat in 4% paraformaldehyde at room temperature for 12 hours, and the vascular plaque was stained with Oil Red O using the same method as Example 23-5. […] The mRNA amount after aging was induced was calculated as 100% and compared with the mRNA amount of p16 after treatment with the test compound.

senescent cells = assay: Viability of senescent cells (CellTiter-Glo), Example 17, Table 13; settings: Homo sapiens, read-out: Survival (%)
Procedure: Cells induced to undergo senescence by doxorubicin treatment were treated with test compound at designated concentrations and measured using the CellTiter-Glo Luminescent Cell Viability Assay (Promega).

Row | Compound | p16 mRNA (naturally aged mice) | IL6 mRNA (naturally aged mice) | MMP3 mRNA (naturally aged mice) | Agtr1a mRNA (%) [2] | Creatinine (%) [2] | Urea (%) [2] | p16 mRNA (C57BL6-ApoE−/− mice) | Plaque number (C57BL6-ApoE−/− mice) | viability at 1.1 µM (senescent cells) | viability at 10 µM (senescent cells) | other results
1 | COC(=O)c1ccc([C@H]2c3[nH]c4ccccc4c3C[C@H](C(=O)OC)N2C(=O)CCl)cc1 [LX-405] | 76.9 (±6.8) % | 73.6 (±7.4) % | 64.7 (±11.5) % | – | – | – | – | – | – | – | induced death of cells (senescent human cells; senescent foreskin cells, 30 μM, 3 days): induced the death of most cells
2 | S=C(N/N=C1\CCCc2cccnc21)N1CCN(c2ccccn2)CC1 [LX-801] | 69.4 (±6.9) % | 71.1 (±1.8) % | 76.5 (±4.2) % | – | – | – | – | – | – | – | Survival (senescent human cells; 1.1 μM, 0 μM = 100): 50.5%; Survival (senescent human cells; 10 μM, 0 μM = 100): 28.2%; Survival (senescent human cells; […], 0 μM = 100): 48.9%
3 | C[C@@H]1CC[C@@]23C[C@H](O)C(=O)[C@@]2(O)[C@]1(C)[C@H](OC(=O)CCl)C[C@@H](C1=CCn2c(=O)n(-c4ccccc4)c(=O)n2C1)[C@@H]3C [LX-1801, (2S,3aS,4S,5R,7R,8S,8aS,11R)-7-(1,3-Dioxo-2-phenyl-2,3,5,8-tetrahydro-1H-[1,2,4]triazolo[1,2-a]pyridazin-6-yl)-2,3a-dihydroxy-4,8,11-trimethyl-3-oxooctahydro-1H-4,8a-propanoazulen-5-yl 2-Chloroacetate] | 77.4 (±5.2) % | 56.8 (±19.3) % | 47.1 (±15.6) % | – | – | – | – | – | – | – | –
4 | C[C@H]1[C@H](C)CC[C@]2(C(=O)O)CC[C@]3(C)C(=CC[C@@H]4[C@@]5(C)CC[C@H](O)C(C)(C)[C@@H]5CC[C@]43C)[C@H]12 [LX-2001, Ursolic acid] | – | – | – | – | – | – | – | – | – | – | viability at […] (senescent human cells; Homo sapiens, 3.3 μM, 0 μM = 100, read-out: Survival): 0.8%
5 | CC1(C)CC[C@]2(NC(=O)C(C)(F)F)CC[C@]3(C)[C@H](C(=O)C=C4[C@@]5(C)C=C(C#N)C(=O)C(C)(C)[C@@H]5CC[C@]43C)[C@@H]2C1 [LX-2101, Omaveloxolone] | 62.5 (±13.1) % | 64.1 (±8.8) % | 53.6 (±14.3) % | – | – | – | – | – | – | – | Lipofuscin (staining area) [1]: 64 (±11.6) %
6 | COC(=O)[C@]12CCC(C)(C)C[C@H]1[C@H]1C(=O)C=C3[C@@]4(C)C=C(C#N)C(=O)C(C)(C)[C@@H]4CC[C@@]3(C)[C@]1(C)CC2 [LX-2102, Bardoxolone methyl] | – | – | – | – | – | – | – | – | – | – | Lipofuscin (staining area) [1]: 71 (±8.1) %
7 | CCCC\C=C/C=C/C=C\CCCCCCCC(=O)O [LX-2707, Punicic acid] | – | – | – | 68 (±3.3) % | 73 (±4.3) % | 78 (±3.1) % | 81 (±6.0) % | 19.4 (±3.6) | – | – | –
8 | COC(=O)[C@H]1Cc2c([nH]c3ccccc23)[C@H](c2ccc(S(C)(=O)=O)cc2)N1C(=O)CCl [LX-5401, methyl (1S,3R)-2-(2-chloroacetyl)-1-(4-(methylsulfonyl)phenyl)-2,3,4,9-tetrahydro-1H-pyrido[3,4-b]indole-3-carboxylate] | – | – | – | – | – | – | – | – | 99.5% | 66% | viability at 30 µM (senescent cells): 24.6%
9 | C#CC(=O)N1[C@@H](CCCC)Cc2cc(OC)ccc2[C@@H]1c1ccc(NC23CC4CC(CC(C4)C2)C3)cc1 [LX-5411] | – | – | – | – | – | – | – | – | 75.4% | 2.8% | –
10 | O=C1C2CCN(CC2)C1CNC(=O)C(F)(F)F (stereo not shown) [LX-5701] | – | – | – | 44 (±2.3) % | 68 (±6.3) % | 71 (±4.0) % | 71 (±12.8) % | 12.7 (±4.6) | 91.4% | 19.3% | Lipofuscin (staining area) [1]: 69 (±10.8) %
11 | Cc1cccc([C@H](C)c2cnc[nH]2)c1C [LX-6807, Dexmedetomidine] | – | – | – | 37 (±4.0) % | 57 (±2.0) % | 68 (±2.7) % | 59 (±4.7) % | 15.3 (±2.4) | 95.1% | 42.5% | viability at 30 µM (senescent cells): 6.9%
12 | Tocofersolan [LX-3001] | – | – | – | 61 (±2.0) % | 75 (±3.2) % | 81 (±5.4) % | 78 (±7.2) % | 17.5 (±4.2) | – | – | Survival (senescent human cells; 1.1 μM, 0 μM = 100): 74.8%; Survival (senescent human cells; […], 0 μM = 100): 1.1%
